{"source": "a melting point compilation (Tetko et al.; mined from patent text by program, amines drawn as free bases though some values may be those of a salt)"}
{"units": {"melting point": "°C"}}
{"smiles": "Cc1cc(-c2ccc(F)cc2)n(-c2ccc(S(C)(=O)=O)cc2)c1", "melting point": "151 to 154"}
{"smiles": "NC(=O)CNC(=O)c1cccc(-c2ccnc3cc(Cc4cccc(C(F)(F)F)c4)sc23)c1", "melting point": "183 to 184"}
{"smiles": "N#Cc1cccnc1N1CCN(CNC(=O)c2ccccc2Cl)CC1", "melting point": "137 to 139"}
{"smiles": "Cc1ccc(-c2ccc3c(c2)C=C(C(=O)Nc2ccc(CN(C)C4CCOCC4)cc2)CC(C)O3)cc1", "note": "(configuration not stated)", "melting point": "170 to 171"}
{"smiles": "CC(=O)Oc1cc(Cl)ccc1C(=O)NCCO[N+](=O)[O-]", "melting point": "75 to 77"}
{"smiles": "O=C(O)C1(Cc2ccccc2)CCN(Cc2ccccc2)C1", "note": "(configuration not stated)", "melting point": "209 to 210"}
{"smiles": "CCCCCCCCCCCCCCOc1ccc(C(=O)NCc2ccccn2)cc1", "melting point": "91 to 93"}
{"smiles": "O=C(CN1CCOCC1)N[C@@H](Cc1ccccc1)[C@@H](O)[C@H](O)[C@H](Cc1ccccc1)NC(=O)CN1CCOCC1", "melting point": "172 to 177"}
{"smiles": "CCCCc1nc2cccc(C=O)c2n1Cc1ccccc1Cl", "melting point": "114 to 115"}
{"smiles": "COC(=O)C1CN2c3c(cc(F)c(OS(C)(=O)=O)c3CCN2C)C1=O", "note": "(configuration not stated)", "melting point": "247 to 250"}
{"smiles": "CC(=O)NCCNCc1ccc(-c2cc3ncnc(Nc4ccc5[nH]ccc5c4)c3s2)cc1", "melting point": "142 to 155"}
{"smiles": "COc1ccccc1C1(O[Si](C)(C)C)C(=O)Nc2ccc(Cl)cc21", "note": "(configuration not stated)", "melting point": "185 to 187"}
{"smiles": "CCCCCCCCCCCC(=O)c1ccc(/C=C/C(=O)O)o1", "melting point": "122 to 127"}
{"smiles": "Cc1cccc(NC(=O)c2ccccc2C)c1", "melting point": "145 to 146"}
{"smiles": "CCc1cccc(C2(O)C3CC4CC(C3)CC2C4)c1", "note": "(configuration not stated)", "melting point": "63 to 65"}
{"smiles": "CC(C)(C)OC(=O)N(CC(=O)O)CC(=O)O", "melting point": "135 to 137"}
{"smiles": "Cc1ccc(-c2nn3cccnc3c2CC(=O)O)cc1", "melting point": "170 to 171"}
{"smiles": "COc1cc(OC)nc(OC(C(=O)N[C@@H](C)C(=O)O)C(C)C)n1", "note": "(some centres not stated)", "melting point": "157 to 160"}
{"smiles": "CN1CCN(Cc2cccc(-c3cc4c(Nc5ccc6[nH]ccc6c5)c(C#N)cnc4s3)c2)CC1", "melting point": "128 to 130"}
{"smiles": "O=C1CC(=O)N(Cc2ccccc2)[C@H](Cc2ccccc2)C1", "melting point": "97 to 97.5"}
{"smiles": "Cn1ncsc1=NC(=S)Nc1ccccc1", "melting point": "174 to 175"}
{"smiles": "CC(C)C(=O)NCc1ccc(-c2csc(N=C(N)N)n2)o1", "melting point": "211 to 213"}
{"smiles": "COC(=O)c1sc2c(c1N)c1ccccc1c(=O)n2-c1ccccc1Cl", "melting point": "244 to 246"}
{"smiles": "COC(=O)CSC(CCCc1ccccc1)c1ccc(OCc2ccc3ccc(F)cc3n2)cc1", "note": "(configuration not stated)", "melting point": "64 to 66"}
{"smiles": "COc1ccc2[nH]c(S(=O)Cc3cc(N(C)C)c(Cl)cn3)nc2c1", "note": "(configuration not stated)", "melting point": "155 to 157"}
{"smiles": "CC(=O)Nc1c(Cl)cc(Br)c(C)c1Cl", "melting point": "173 to 174"}
{"smiles": "N#Cc1ccc(-c2ccn(-c3ccc(C#N)cc3)c2)cc1", "melting point": "234 to 240"}
{"smiles": "CC1CCC(C(C)C)C(OC(=O)C2C(=O)N(Cc3ccc(Br)cc3F)C(=O)c3cccn32)C1", "note": "(configuration not stated)", "melting point": "98 to 99"}
{"smiles": "CCOC(=O)CCn1c(-c2ccc(Cl)cc2)nc2cccnc21", "melting point": "57 to 59"}
{"smiles": "CCOC(=O)c1cc(OC)c(OCC)c(OCC)c1-c1c(C(=O)OCC)cc(OC)c2c1OCO2", "melting point": "73 to 74.5"}
{"smiles": "CN1CCNC(c2ccccc2)c2cc(Cl)ccc21", "note": "(configuration not stated)", "melting point": "66 to 68"}
{"smiles": "COc1ccc(-c2[nH]cnc2-c2cc(OC)c(Br)c(OC)c2)cc1N", "melting point": "160 to 162"}
{"smiles": "CCCc1nc(SC)nc(O)c1Cc1ccc(-c2ccccc2C#N)cc1", "melting point": 218}
{"smiles": "CC(C)(C)OC(=O)Nc1nc2cc(N)ccc2[nH]1", "melting point": 168}
{"smiles": "NC(=O)C1CCC2(CC1)OCCO2", "melting point": "167 to 170"}
{"smiles": "CCc1nc2c(N)nc3cccnc3c2n1CC1(O)CCN(S(C)(=O)=O)CC1", "melting point": "> 255"}
{"smiles": "COCc1c(C(=O)c2ccccc2)ncc2[nH]c3ccc(Oc4ccc(Br)cn4)cc3c12", "melting point": "193 to 194"}
{"smiles": "Brc1ccc(-c2cc(-c3cccc(Br)c3)no2)cc1", "melting point": 169}
{"smiles": "CC(CCn1c(=O)[nH]c2ccccc21)N1CCC(CC(=O)c2ccc(F)cc2)CC1", "note": "(configuration not stated)", "melting point": 185}
{"smiles": "CC(C)(C)c1cc(OCCCCCCc2nnn[nH]2)cc(C(C)(C)C)c1", "melting point": "113 to 115"}
{"smiles": "O=C1C(=CO)c2ccccc2N1c1cccc(Cl)c1", "melting point": "175 to 178"}
{"smiles": "OC1CCCCC1n1c(Br)nc2cc(Cl)c(Cl)cc21", "note": "(configuration not stated)", "melting point": "186 to 188"}
{"smiles": "COc1ccc(COCCC(C(=O)O)c2ccccc2)cc1", "note": "(configuration not stated)", "melting point": "114 to 115"}
{"smiles": "CS(=O)(=O)c1cc(C(=O)O)cc([N+](=O)[O-])c1Cl", "melting point": "190 to 194"}
{"smiles": "CC(=NNC(=O)c1ccccc1)c1ccccn1", "melting point": 152}
{"smiles": "COc1ccc2c3c1C(=O)CC3CCO2", "note": "(configuration not stated)", "melting point": "122 to 124"}
{"smiles": "COc1cc2ncnc(Nc3ccc4[nH]ccc4c3)c2cc1I", "melting point": "260 to 267"}
{"smiles": "COc1nc(Cl)nc(N)c1C", "melting point": 189}
{"smiles": "COc1cc2c(cc1OC)C(NCC(=O)O)CC2", "note": "(configuration not stated)", "melting point": "213 to 216"}
{"smiles": "CCN(CC)C(N)=C(C#N)C(N)=S", "melting point": "151 to 152"}
{"smiles": "COc1ccc(CCNc2nc(NCc3cc(OC)cc(OC)c3)c3cccnc3n2)cc1", "melting point": "88 to 89"}
{"smiles": "CCCCCCCCCCCCCCCCCCOC(=O)CCC1CCCCC1(c1ccc(O)c(C(C)(C)C)c1)c1ccc(O)c(C(C)(C)C)c1", "note": "(configuration not stated)", "melting point": 155}
{"smiles": "CCOC(=O)C(=NO)c1ccc(F)cc1", "melting point": "117 to 118"}
{"smiles": "NC(=O)COc1ccc(OCCn2ccnc2)cc1", "melting point": "123 to 124"}
{"smiles": "COc1cc(C(=O)O)ccc1Cc1cccc2ccc(CCCC(=O)N(C)C)cc12", "melting point": "231 to 232"}
{"smiles": "COc1ccccc1Oc1c(NS(=O)(=O)c2c(C)noc2C)nc(N2CCOCC2)nc1OCCO", "melting point": "144 to 147"}
{"smiles": "CS(=O)(=O)OCCn1c(=NC(=O)C(F)(F)F)sc2cc(OC(F)(F)F)ccc21", "melting point": 145}
{"smiles": "CCOC(=O)c1c(N)sc(C#N)c1C", "melting point": "200 to 202"}
{"smiles": "CCn1c(=O)c2c(nc(/C=C/c3cccc(OC)c3OC)n2C)n(CC)c1=O", "melting point": "195 to 196"}
{"smiles": "Cc1cccc(Nc2nc(-c3cn[nH]c3)c(F)s2)n1", "melting point": 204}
{"smiles": "COC(=O)C(C)Oc1ccc(COc2ccc(Cl)cc2Cl)cc1", "note": "(configuration not stated)", "melting point": 64}
{"smiles": "Cc1c(C(=O)N[C@H](C(=O)O)c2ccc(OCc3ccccc3)cc2)oc2cc(-c3ccc(Cl)cc3)ccc12", "melting point": 178}
{"smiles": "N#CN1CCC(c2n[nH]c3cc(F)ccc23)CC1", "melting point": "143 to 145"}
{"smiles": "Oc1c2c(nn1-c1ccccn1)CCc1ccccc1-2", "melting point": "145 to 146"}
{"smiles": "COC(=O)CCc1nc(CCc2ccc(C(=O)OC)cc2)ccc1OCCCC/C=C/c1ccc(OC)cc1", "melting point": "59 to 61"}
{"smiles": "CC(=O)OCc1cn2c(n1)CN=C(c1ccccc1F)c1cc(Cl)ccc1-2", "melting point": "134 to 136"}
{"smiles": "COC(=O)C1OC(Oc2nc[nH]c2C(N)=O)C(OC(C)=O)C(OC(C)=O)C1OC(C)=O", "note": "(configuration not stated)", "melting point": "211 to 212"}
{"smiles": "CNC(=O)N1N=C(c2ccc(N)cc2)c2cc(Br)ccc2CC1C", "note": "(configuration not stated)", "melting point": "121 to 124"}
{"smiles": "Cn1cnc2c1c(=O)n(CCCCCCOc1ccc(Cl)cc1)c(=O)n2C", "melting point": "97 to 98"}
{"smiles": "O=C1N(Cc2ccccn2)c2cccc(-c3cccnc3)c2C12COc1cc3c(cc12)CCO3", "note": "(configuration not stated)", "melting point": "> 200"}
{"smiles": "Cc1nc2c3c(c(C(=O)N4CCC(O)C4)cc2n1C)CCC(c1ccccc1)O3", "note": "(configuration not stated)", "melting point": "322 to 324"}
{"smiles": "CON=C(C(=O)OC(C)C)c1ccccc1CBr", "melting point": "76 to 77"}
{"smiles": "CC12CCC3(CC1CCC1C2CCC2(C)C1CC(O)C2N=[N+]=[N-])OCCO3", "note": "(configuration not stated)", "melting point": "112 to 116"}
{"smiles": "CC(C)Oc1c(CO)cnc2c(C(F)(F)F)cccc12", "melting point": "73 to 74"}
{"smiles": "CN1Cc2c(I)ncn2-c2ccc(F)cc2C1=O", "melting point": "187 to 188"}
{"smiles": "O=C(/C=C/c1ccc2cc[nH]c2c1)CC(=O)/C=C/c1ccc(OCc2ccccn2)cc1O", "melting point": "188 to 190"}
{"smiles": "O=C(O)c1cn(-c2ccc(SC(F)(F)F)cc2)cn1", "melting point": "247 to 248"}
{"smiles": "COC(=O)[C@H](CC(C)C)NC(=O)CNC(=O)[C@H](Cc1ccc(O)cc1)NC(=O)[C@H](CO)NC(=O)OCc1ccccc1", "melting point": "166 to 167"}
{"smiles": "CCCCC(Cc1cc(C(C)(C)C)c(O)c(C(C)(C)C)c1)(C(=O)OC1CC(C)(C)N(OC)C(C)(C)C1)C(=O)OC1CC(C)(C)N(OC)C(C)(C)C1", "melting point": "111 to 113"}
{"smiles": "Nc1c(Br)cc2c(c1Br)CCC2", "melting point": "220 to 221"}
{"smiles": "COc1ccc(Cc2cc3ccccc3c(=O)[nH]2)cc1", "melting point": "216 to 218"}
{"smiles": "O=C1NC=C(C(=O)O)CN1", "melting point": "139 to 141"}
{"smiles": "Cc1cccc(N=NC2=NCCS2)c1C", "melting point": "74 to 79"}
{"smiles": "CCOC(=O)c1c(C(C)(C)O)nc(SC)n1Cc1ccc(-c2ccccc2-c2nnnn2C(c2ccccc2)(c2ccccc2)c2ccccc2)cc1", "melting point": "125 to 127"}
{"smiles": "CCOc1ccncc1NS(=O)(=O)c1nc2cc(C)nc(OC)n2n1", "melting point": "184 to 186"}
{"smiles": "O=C1CCCC2CN(C(Cc3ccccc3)=NCc3cccs3)CC12", "note": "(configuration not stated)", "melting point": 114}
{"smiles": "Cc1cnc2nc(NS(=O)(=O)c3ccccc3Cl)nn2c1", "melting point": "236 to 239"}
{"smiles": "Cc1cc(C)cc(CC(=O)Nc2[nH]c(=O)[nH]c(=O)c2C(C)C)c1", "melting point": "126 to 127"}
{"smiles": "CCOCc1nc2c(N)nc(C)c(C)c2n1NC1CCN(S(C)(=O)=O)CC1", "melting point": "127 to 131"}
{"smiles": "COC(=O)c1sc2ccccc2c1CBr", "melting point": "101 to 102"}
{"smiles": "CC1c2cc(O)ccc2-c2ccc(O)cc21", "melting point": "192 to 196"}
{"smiles": "COCCOCc1c(CN(C)CC(O)c2cccc(N)c2)sc2c(=O)c(C(=O)NCc3ccc(Cl)cc3)cn(C)c12", "note": "(configuration not stated)", "melting point": "128 to 131"}
{"smiles": "O=C(NCCCCn1cncn1)c1ccco1", "melting point": "78 to 79"}
{"smiles": "O=C(c1cc2ccccc2[nH]1)N1CCCCC1", "melting point": "213 to 214"}
{"smiles": "CC(C)(C)CC(=O)N1C[C@@H](c2c[nH]c3ccccc23)[C@H](c2cn3c4c(cccc24)CCC3)C1", "melting point": "202 to 204"}
{"smiles": "CCCCN1CCC(CNC(=O)c2ccc(N)n3cc(CC)nc23)CC1", "melting point": "139 to 145"}
{"smiles": "C[C@H](N=C(C(=O)N[C@@H](C)c1ccccc1)C(C)(C)C)c1ccccc1", "melting point": "96 to 97"}
{"smiles": "Cc1ccccc1C(=O)NCC(C)O", "note": "(configuration not stated)", "melting point": "78 to 81"}
{"smiles": "COc1cc(C)c2[nH]ccc2c1C(C)(N)c1nc2cc(C#N)ccc2[nH]1", "note": "(single isomer, unassigned; (-))", "melting point": 201}
{"smiles": "O=C1c2cccc(Br)c2C(=O)N1c1ccc(OC(F)(F)F)cc1", "melting point": "117 to 118"}
{"smiles": "COc1ccccc1N1CCN(C[C@@H](CC2CCCCC2)NC(=O)C2(C)CCCCC2)CC1", "melting point": "119 to 121"}
{"smiles": "COc1cc(-c2oc3c(OC)cc(/C=C/C=O)cc3c2C)ccc1O", "melting point": "169 to 170"}
